Assay results as given in patent US12285403B2, “A2-73 as a therapeutic for insomnia, anxiety and agitation” (Anavex Life Sciences Corp., priority 2016, dated 2025).

Tests used:
[1] = test system: insomnia, anxiety or agitation; assay: Single-patient therapy Examples 1-10 (insomnia, anxiety, agitation); assay type: in vivo, human
Protocol: A person presents as suffering from maintenance insomnia for one year. They are started on oral A2-73 at 10 mg/day. […] They are currently maintained on 10 mg of A2-73 and is sleeping well. A person presents with anxiety of three years' duration. They are administered A2-73 at 20 mg oral per day every other day. […] They are maintained on this dosing schedule for 60 days. […] They are treated with 30 mg A2-73 oral daily for 30 days. […] They are currently maintained at that dosage and is not anxious. A person presents with MCI and reports maintenance insomnia for one year. They are started on oral A1-41 at 10 mg/day. […] They are currently maintained on 10 mg of A1-41 and is sleeping well. The patient is a person with diagnosed AD and reported anxiety of three years' duration. They are administered A19-144 at 20 mg oral per day every day for 90 days. […] They are chronically maintained on this dosing schedule. A person diagnosed with mild cognitive impairment presents as suffering from maintenance insomnia for one year. They are started on oral A2-73 at 50 mg/day. […] They are currently maintained on 50 mg of A2-73 daily and is sleeping well. A person diagnosed with Alzheimer's disease presents with insomnia/WASO and agitation and a systolic blood pressure of 145 mm Hg. They are started on oral A2-73 at 30 mg/day. […] They are also less agitated. Their results on all cognitive tests and HAM-D improve. They are currently maintained on 30 mg of A2-73 daily. A person diagnosed with Alzheimer's disease presents with insomnia/WASO and agitation. They are started on oral A2-73 at 100 mg/day. […] They are also less agitated. Their results on all cognitive tests and HAM-D improve. They are currently maintained on 100 mg of A2-73 every other day. A person diagnosed with Alzheimer's disease presents with insomnia/WASO and agitation. They are started on oral A19-144 at 50 mg/day. […] They are also less agitated. Their results on all cognitive tests and HAM-D improve. They are currently maintained on 50 mg of A19-144 daily. A person diagnosed with Alzheimer's disease presents with insomnia/WASO and agitation. They are started on oral A1-41 at 30 mg/day. […] They are also less agitated. Their results on all cognitive tests and HAM-D improve. They are currently maintained on 30 mg of A1-41 daily.

[2] = test system: muscarinic acetylcholine receptors; conditions: 'is believed to bind'; cited from earlier work
sigma-1 receptors = sigma-1 receptors (Homo sapiens, UniProt Q99720); conditions: 'is believed to bind'; cited from earlier work
[3] = Example 10: oral 30 mg/day, 60 days
[4] = Example 9: oral 50 mg/day, 30 days

Chain of sigma-1 receptors (Q99720 whole entry): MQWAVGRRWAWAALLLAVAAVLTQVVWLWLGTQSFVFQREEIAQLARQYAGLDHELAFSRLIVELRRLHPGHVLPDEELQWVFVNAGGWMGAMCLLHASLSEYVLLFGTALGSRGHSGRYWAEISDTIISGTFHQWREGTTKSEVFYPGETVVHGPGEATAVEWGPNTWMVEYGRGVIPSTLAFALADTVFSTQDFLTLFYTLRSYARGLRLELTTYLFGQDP

| SMILES | Sleep at follow up (maintenance insomnia) ([1]; Example 4: person with MCI, oral 10 mg/day, 30 days) | Agitation at follow up [1, 3] | Results on all cognitive tests and HAM-D [1, 3] | Sleep at follow up (insomnia/WASO) ([1]; Example 10: person with AD, oral 30 mg/day, 60 days) | Anxiety ([1]; Example 5: person with AD, 20 mg oral every day, after two days of dosing) | Agitation at follow up [1, 4] | Results on all cognitive tests and HAM-D [1, 4] | Sleep at follow up (insomnia/WASO) ([1]; Example 9: person with AD, oral 50 mg/day, 30 days) | Affinity for muscarinic acetylcholine receptors [2] | Affinity for sigma-1 receptors (sigma-1 receptors) |
| --- | --- | --- | --- | --- | --- | --- | --- | --- | --- | --- |
| CN(C)CC1COC(c2ccccc2)(c2ccccc2)C1.Cl (stereo not shown) [A1-41, tetrahydro-N,N-dimethyl-5,5-diphenyl-3-furanmethanamine hydrochloride] | sleeping well | less agitated | improve | sleeping well through the night |  |  |  |  |  |  |
| CNCC1CCOC1(c1ccccc1)c1ccccc1.Cl (stereo not shown) [A19-144, 1-(2,2-diphenyltetrahydrofuran-3-yl)-N-methylmethanamine hydrochloride] |  |  |  |  | Resolution of the anxiety | less agitated | improve | sleeping well through the night | low micromolar range | low micromolar range |
